Measured values reported in ChEMBL document CHEMBL2040766, “Hemisynthesis and antiproliferative properties of mono-[O-(14-benzoylaconine-8-yl)]esters and bis-[O-(14-benzoylaconine-8-yl)]esters” (Eur J Med Chem, 2012).

How the values were obtained:
A549 = experiment: Cytotoxicity against human A549 cells incubated for 24 hrs measured 48 hrs post cell re-growth post compound dose by MTT assay; format: functional, cell-based
MCF7 [1] = experiment: Cytotoxicity against human MCF7 cells incubated for 24 hrs measured 48 hrs post cell re-growth post compound dose by MTT assay; format: functional, cell-based
HCT-15 [2] = experiment: Cytotoxicity against human HCT15 cells incubated for 24 hrs measured 48 hrs post cell re-growth post compound dose by MTT assay; format: functional, cell-based
Mus musculus [3] = experiment: Toxicity in NOD.Cg-Prkdcscid Il2rgtmw/SzJ jax 005557 mouse xenografted with human HCT15 cells assessed as weight loss at 10 mg/kg, iv administered as 5 doses every 3 days starting at day 7 post-tumor grafting relative to vehicle treated control; format: organism-based, HCT-15; design: dose 10 mg/kg, route intravenous; details: in vivo, 72 h
HCT-15 [4] = experiment: Antitumor activity against human HCT15 cells xenografted in NOD.Cg-Prkdcscid Il2rgtmw/SzJ jax 005557 mouse assessed as tumor weight at 10 mg/kg, iv administered as 5 doses every 3 days starting at day 7 post-tumor grafting measured on day 25 relative to vehicle treated control; format: functional
MCF7 [5] = experiment: Antitumor activity against human MCF7 cells xenografted in NOD.Cg-Prkdcscid Il2rgtmw/SzJ jax 005557 mouse assessed as tumor weight at 10 mg/kg, iv administered as weekly four doses starting at day 13 post-tumor grafting measured on day 45 relative to vehicle treated control; format: functional
MCF7 [6] = experiment: Antitumor activity against human MCF7 cells xenografted in NOD.Cg-Prkdcscid Il2rgtmw/SzJ jax 005557 mouse assessed as tumor weight at 10 mg/kg, iv administered as 5 doses every 4 days starting at day 9 post-tumor grafting measured on day 45 relative to vehicle treated control; format: functional
Mus musculus [7] = experiment: Toxicity in NOD.Cg-Prkdcscid Il2rgtmw/SzJ jax 005557 mouse xenografted with human MCF7 cells assessed as weight loss at 10 mg/kg, iv administered as weekly four doses starting at day 13 post-tumor grafting relative to vehicle treated control; format: organism-based; design: dose 10 mg/kg, route intravenous; details: in vivo
Mus musculus [8] = experiment: Toxicity in NOD.Cg-Prkdcscid Il2rgtmw/SzJ jax 005557 mouse xenografted with human MCF7 cells assessed as weight loss at 10 mg/kg, iv administered as 5 doses every 4 days starting at day 9 post-tumor grafting relative to vehicle treated control; format: organism-based; design: dose 10 mg/kg, route intravenous; details: in vivo, 96 h
[9] = Toxicity in iv dosed NOD.Cg-Prkdcscid Il2rgtmw/SzJ jax 005557 mouse assessed as maximum tolerated dose at 10 mg/kg, iv administered as 5 doses every 3 days starting at day 7 post-tumor grafting; format: organism-based; design: dose 10 mg/kg, route intravenous; details: in vivo
[10] = Toxicity in iv dosed NOD.Cg-Prkdcscid Il2rgtmw/SzJ jax 005557 mouse assessed as maximum tolerated dose at 10 mg/kg, iv administered as weekly four doses starting at day 13 post-tumor grafting; format: organism-based; design: dose 10 mg/kg, route intravenous; details: in vivo
[11] = Toxicity in iv dosed NOD.Cg-Prkdcscid Il2rgtmw/SzJ jax 005557 mouse assessed as maximum tolerated dose at 10 mg/kg, iv administered as 5 doses every 4 days starting at day 9 post-tumor grafting; format: organism-based; design: dose 10 mg/kg, route intravenous; details: in vivo
Mus musculus [12] = experiment: Toxicity in NOD.Cg-Prkdcscid Il2rgtmw/SzJ jax 005557 mouse xenografted with human HCT15 cells assessed as mortality incidence at 10 mg/kg, iv administered as 5 doses every 3 days starting at day 7 post-tumor grafting relative to vehicle treated control; format: organism-based, HCT-15; design: dose 10 mg/kg, route intravenous; details: in vivo, 72 h
Mus musculus [13] = experiment: Toxicity in NOD.Cg-Prkdcscid Il2rgtmw/SzJ jax 005557 mouse xenografted with human MCF7 cells assessed as mortality incidence at 10 mg/kg, iv administered as weekly four doses starting at day 13 post-tumor grafting relative to vehicle treated control; format: organism-based; design: dose 10 mg/kg, route intravenous; details: in vivo
Mus musculus [14] = experiment: Toxicity in NOD.Cg-Prkdcscid Il2rgtmw/SzJ jax 005557 mouse xenografted with human MCF7 cells assessed as mortality incidence at 10 mg/kg, iv administered as 5 doses every 4 days starting at day 9 post-tumor grafting relative to vehicle treated control; format: organism-based; design: dose 10 mg/kg, route intravenous; details: in vivo, 96 h
Mus musculus [15] = experiment: Toxicity in NOD.Cg-Prkdcscid Il2rgtmw/SzJ jax 005557 mouse xenografted with human HCT15 cells assessed as induction of toxic effect at 10 mg/kg, iv administered as 5 doses every 3 days starting at day 7 post-tumor grafting relative to vehicle treated control; format: organism-based, HCT-15; design: dose 10 mg/kg, route intravenous; details: in vivo, 72 h
Mus musculus [16] = experiment: Toxicity in NOD.Cg-Prkdcscid Il2rgtmw/SzJ jax 005557 mouse xenografted with human MCF7 cells assessed as induction of toxic effect at 10 mg/kg, iv administered as weekly four doses starting at day 13 post-tumor grafting relative to vehicle treated control; format: organism-based; design: dose 10 mg/kg, route intravenous; details: in vivo
Mus musculus [17] = experiment: Toxicity in NOD.Cg-Prkdcscid Il2rgtmw/SzJ jax 005557 mouse xenografted with human MCF7 cells assessed as induction of toxic effect at 10 mg/kg, iv administered as 5 doses every 4 days starting at day 9 post-tumor grafting relative to vehicle treated control; format: organism-based; design: dose 10 mg/kg, route intravenous; details: in vivo, 96 h

Row | Structure (SMILES) | IC50 (A549) [µM] | IC50 (MCF7 [1]) [µM] | IC50 (HCT-15 [2]) [µM] | also measured
1 | CCN1C[C@]2(COC)[C@H](O)C[C@H](OC)[C@]34C1[C@H]([C@H](OC)[C@H]23)[C@]1(OC(=O)CCCCC(=O)O)[C@H]2[C@@H](OC(=O)c3ccccc3)[C@](O)(C[C@H]24)[C@@H](OC)[C@@H]1O | > 60 | > 60 | > 60 | 
2 | CCN1C[C@]2(COC)[C@H](O)C[C@H](OC)[C@]34C1[C@H]([C@H](OC)[C@H]23)[C@]1(OC(=O)CCC(=O)O)[C@H]2[C@@H](OC(=O)c3ccccc3)[C@](O)(C[C@H]24)[C@@H](OC)[C@@H]1O | > 60 | > 60 | > 60 | 
3 | CCN1C[C@]2(COC)[C@H](O)C[C@H](OC)[C@]34C1[C@H]([C@H](OC)[C@H]23)[C@]1(OC(=O)CCCC(=O)O)[C@H]2[C@@H](OC(=O)c3ccccc3)[C@](O)(C[C@H]24)[C@@H](OC)[C@@H]1O | > 60 | > 60 | > 60 | 
4 | CCN1C[C@]2(COC)[C@H](O)C[C@H](OC)[C@]34C1[C@H]([C@H](OC)[C@H]23)[C@]1(OC(=O)CCCCCC(=O)O)[C@H]2[C@@H](OC(=O)c3ccccc3)[C@](O)(C[C@H]24)[C@@H](OC)[C@@H]1O | > 60 | > 60 | > 60 | 
5 | CCN1C[C@]2(COC)[C@H](O)C[C@H](OC)[C@]34C1[C@H]([C@H](OC)[C@H]23)[C@]1(OC(=O)CCCCCCC(=O)O)[C@H]2[C@@H](OC(=O)c3ccccc3)[C@](O)(C[C@H]24)[C@@H](OC)[C@@H]1O | > 60 | > 60 | > 60 | 
6 | CCN1C[C@]2(COC)[C@H](O)C[C@H](OC)[C@]34C1[C@H]([C@H](OC)[C@H]23)[C@]1(OC(=O)CCCCCCCC(=O)O)[C@H]2[C@@H](OC(=O)c3ccccc3)[C@](O)(C[C@H]24)[C@@H](OC)[C@@H]1O | > 60 | > 60 | > 60 | 
7 | CCN1C[C@]2(COC)[C@H](O)C[C@H](OC)[C@]34C1[C@H]([C@H](OC)[C@H]23)[C@]1(OC(=O)CCCCCCCCC(=O)O)[C@H]2[C@@H](OC(=O)c3ccccc3)[C@](O)(C[C@H]24)[C@@H](OC)[C@@H]1O | > 60 | > 60 | > 60 | 
8 | CCN1C[C@]2(COC)[C@H](O)C[C@H](OC)[C@]34C1[C@H]([C@H](OC)[C@H]23)[C@]1(OC(=O)CCCCCCCCCC(=O)O)[C@H]2[C@@H](OC(=O)c3ccccc3)[C@](O)(C[C@H]24)[C@@H](OC)[C@@H]1O | > 60 | > 60 | > 60 | 
9 | CCN1C[C@]2(COC)[C@H](O)C[C@H](OC)[C@]34C1[C@H]([C@H](OC)[C@H]23)[C@]1(OC(=O)CCC(=O)O[C@]23[C@H]5[C@@H](OC(=O)c6ccccc6)[C@](O)(C[C@H]5[C@@]56C7[C@@H]2[C@H](OC)[C@@H]5[C@](COC)(CN7CC)[C@H](O)C[C@@H]6OC)[C@@H](OC)[C@@H]3O)[C@H]2[C@@H](OC(=O)c3ccccc3)[C@](O)(C[C@H]24)[C@@H](OC)[C@@H]1O | > 60 | > 60 | > 60 | 
10 | CCN1C[C@]2(COC)[C@H](O)C[C@H](OC)[C@]34C1[C@H]([C@H](OC)[C@H]23)[C@]1(OC(=O)CCCC(=O)O[C@]23[C@H]5[C@@H](OC(=O)c6ccccc6)[C@](O)(C[C@H]5[C@@]56C7[C@@H]2[C@H](OC)[C@@H]5[C@](COC)(CN7CC)[C@H](O)C[C@@H]6OC)[C@@H](OC)[C@@H]3O)[C@H]2[C@@H](OC(=O)c3ccccc3)[C@](O)(C[C@H]24)[C@@H](OC)[C@@H]1O | > 60 | > 60 | > 60 | 
11 | CCN1C[C@]2(COC)[C@H](O)C[C@H](OC)[C@]34C1[C@H]([C@H](OC)[C@H]23)[C@]1(OC(=O)CCCCC(=O)O[C@]23[C@H]5[C@@H](OC(=O)c6ccccc6)[C@](O)(C[C@H]5[C@@]56C7[C@@H]2[C@H](OC)[C@@H]5[C@](COC)(CN7CC)[C@H](O)C[C@@H]6OC)[C@@H](OC)[C@@H]3O)[C@H]2[C@@H](OC(=O)c3ccccc3)[C@](O)(C[C@H]24)[C@@H](OC)[C@@H]1O | > 60 | > 60 | > 60 | 
12 | CCN1C[C@]2(COC)[C@H](O)C[C@H](OC)[C@]34C1[C@H]([C@H](OC)[C@H]23)[C@]1(OC(=O)CCCCCC(=O)O[C@]23[C@H]5[C@@H](OC(=O)c6ccccc6)[C@](O)(C[C@H]5[C@@]56C7[C@@H]2[C@H](OC)[C@@H]5[C@](COC)(CN7CC)[C@H](O)C[C@@H]6OC)[C@@H](OC)[C@@H]3O)[C@H]2[C@@H](OC(=O)c3ccccc3)[C@](O)(C[C@H]24)[C@@H](OC)[C@@H]1O | 9.5 | 7.56 | 4.64 | 
13 | CCN1C[C@]2(COC)[C@H](O)C[C@H](OC)[C@]34C1[C@H]([C@H](OC)[C@H]23)[C@]1(OC(=O)CCCCCCC(=O)O[C@]23[C@H]5[C@@H](OC(=O)c6ccccc6)[C@](O)(C[C@H]5[C@@]56C7[C@@H]2[C@H](OC)[C@@H]5[C@](COC)(CN7CC)[C@H](O)C[C@@H]6OC)[C@@H](OC)[C@@H]3O)[C@H]2[C@@H](OC(=O)c3ccccc3)[C@](O)(C[C@H]24)[C@@H](OC)[C@@H]1O | 7.53 | 6.9 | 4.01 | T/C (Mus musculus [3]): 9.34%; T/C (HCT-15 [4]): 49%; T/C (MCF7 [5]): 56%; T/C (MCF7 [6]): 36%; T/C (Mus musculus [7]): 0%; T/C (Mus musculus [8]): 0%; MTD at 72 h [9]: 15 mg/kg; MTD [10]: 15 mg/kg; MTD at 96 h [11]: 15 mg/kg; Activity (Mus musculus [12]): Non-toxic; Activity (Mus musculus [13]): Non-toxic; Activity (Mus musculus [14]): Non-toxic; Activity (Mus musculus [15]): Non-toxic; Activity (Mus musculus [16]): Non-toxic; Activity (Mus musculus [17]): Non-toxic
14 | CCN1C[C@]2(COC)[C@H](O)C[C@H](OC)[C@]34C1[C@H]([C@H](OC)[C@H]23)[C@]1(OC(=O)CCCCCCCC(=O)O[C@]23[C@H]5[C@@H](OC(=O)c6ccccc6)[C@](O)(C[C@H]5[C@@]56C7[C@@H]2[C@H](OC)[C@@H]5[C@](COC)(CN7CC)[C@H](O)C[C@@H]6OC)[C@@H](OC)[C@@H]3O)[C@H]2[C@@H](OC(=O)c3ccccc3)[C@](O)(C[C@H]24)[C@@H](OC)[C@@H]1O | 19.5 | 16.9 | 28 | 
